We go through two molecules from US4182770A, “Alcohol deterrent” (priority 1976, dated 1980).

What is called half-life is the time in which the quantity being followed falls by half.

A short description of series [1]: Half-life time of the active material. The conditions noted are these: in vivo.
For series [2], the system named is important enzyme systems. The experiment in a line: Inhibition of important enzyme systems. The class given is biochemical. The conditions noted are these: compound I. From the text: (§1) In contrast, important enzyme systems are inhibited by use of disulfiram.
Series [3] in a line: Critical examinations for possible damages (clinical laboratory and blood pressure determinations). In kind it is in vivo, humans. The conditions noted are these: bilirubin in the blood. The text has this:
In addition to the treatment with I, critical examinations for possible damages were undertaken. […] However, this observation probably only applies indirectly and exclusively to alcohol-toxic liver damages because toxic alcohol which was no longer inhibited, no longer acted upon the liver.

In a further series the test system is trypanosomes. To be noted: known from P 16 20 043 / GB 1,133,408; cited from earlier work.
The test system of series [4] is aversion to alcohol in humans. Kind of series: Alcohol withdrawal/aversion treatment in patients (case histories). In kind it is in vivo. The method, then:
In a particularly preferred mode of administration, tablets or dragees containing about 800 mg. of I are used. As an example of its use, after at least 12 hours of alcohol abstention, a half tablet (400 mg.) can be given in the morning before eating, and another half on the next day.
22 Men and 5 women were treated with the new agent I. The youngest patient was 22 and the oldest 68. The average age was 44 years. After the first administration (400 mg., twice), as described above, the dosage consisted of a single oral administration of 800 mg. per week. The highest total dosage amounted to 67 g. of I. With this, the patient could be protected against the influence of alcohol for 84 weeks.
In assessment of success, 5 cases are to be discounted from the total of 27 I treatments. […] Thus, 22 cases remain which can be considered as I treatments. In 12 of these cases, the withdrawal treatment was successful; in three cases questionable; and 7 cases without success. […] After taking 11 g. of I and more (corresponding to an active level period of over 14 weeks), 8 successful cases were counted and two had questionable success. Below 6 g. of I (corresponding to an active level of not more than 8 weeks), there were seven failures; one questionable case and only 2 successful withdrawals.

Series [5] deals with acetaldehyde content of the blood. The experiment in a line: Acetaldehyde content of the blood after the consumption of alcohol. The class given is in vivo.
Description: as §1

Series [6] in a line: Side effects / tolerability on administration. In kind it is in vivo, humans. From the text:
It can even appear upon merely smelling the atmosphere of a barroom. […] However, in comparison with the known severe results of a marked abuse of alcohol, these side effects are negligible.

The test system of series [7] is important enzyme systems. To be noted: disulfiram; cited from earlier work.
For series [8] the following is noted: disulfiram, cited from earlier work.
Where [9] appears, read: below 6 g. of I (active level of not more than 8 weeks).
Where [10] appears, read: after administration of I, humans.

“Also recorded” adds a separate entry of the source. Where two headings read alike, the source gives them in different places. Some results are limits rather than exact numbers.

Molecule `Cc1nc([N+](=O)[O-])cn1-c1ccc([N+](=O)[O-])cc1` [compound I, 1-(4-nitrophenyl)-2-methyl-4-nitroimidazole] yielded a half-life in series [1] of more than 40 h. Moreover, the “inhibition of important enzyme systems” value in the series with important enzyme systems [2] is “No such inhibition occurs”. Besides, the liver function tests entry in [3] (γ-GT and γ-globulins, probably indirect, alcohol-toxic liver damages only) was “clear normalizations”. Moreover, in series [3] (lymphocytes, GT, GOT, GPT, total protein, β-globulins, γ-globulins, cholesterol, RR systolic), the “harmful side effects in laboratory examinations” value is “no indications of harmful side effects”. Further, the “effectiveness against disease-causing trypanosomes” value with trypanosomes is “effectiveness”. The successful cases in [4] (11 g. of I and more (active level period of over 14 weeks)) stood at 8 cases. Further, the “correlation of success with period of the withdrawal treatment” value in [4] (22 evaluable cases) is “clearly correlated”. The outcome of treatment in series [4] (Example 1: champagne cellerman, total dosage 67 g., first treatment from May 1972) was “the patient behaved normally and worked regularly”. Further, the “outcome of renewed treatment” value in series [4] (Example 1: treatment begun again after relapse in May 1974, up to January 1975) is recorded as “same good success”. The “effect of alcohol after discontinuation of treatment” value in [4] (Example 2: one month after discontinuation (treated November 1973 to February 1974)) was “throbbing headache caused by alcohol”. For the same molecule, the outcome of treatment in [4] (Example 2: storekeeper, total dosage 57 g., since April 1974, relatively regular taking of tablets) is given as “normal, regular work”. The outcome of treatment in series [4] (Example 3: total dosage 37 g., after renewed treatment November 1973 to January 1975) is listed as “no alcohol”. For the same molecule, the outcome of treatment in [4] (Example 4: immigrant worker, total dosage 25 g., statement of spouse) was “successful breaking of the habit”. In addition, in series [4] (Example 4: total dosage 25 g., according to statements of the wife), the “alcohol consumption since the end of the treatment” value is “only had an occassional 1-2 glasses of wine”. The outcome of treatment in [4] (Example 5: employee, total dosage 17 g., after treatment September 1974 to February 1975) is reported as “alcohol-free”. Moreover, in [4] (after the administration of I, humans), the revulsion against alcohol entry was “a pronounced revulsion against alcohol is produced; also recorded: causes an aversion to alcohol in humans”. In series [4] (setting [9]), the failures result is given as “seven”, the questionable case entry was “one” and the successful withdrawals is recorded as 2. Further, in series [4] (highest total dosage 67 g., 400 mg. twice, then oral 800 mg. per week), the “patient protected against the influence of alcohol, duration” value came to 84 weeks. In [4] (of 22 evaluable cases), the withdrawal treatment questionable result is reported as “three”, the withdrawal treatment successful was determined as 12 cases and the “withdrawal treatment without success” value is given as 7 cases. Besides, the “acetaldehyde content of the blood” value in series [5] is listed as “increase”. In series [6] (Example 1: after first 400 mg.), the compatibility result was “Good compatibility”. Further, in [6] (setting [10]), the “severity of side effects” value is listed as “generally minor”; the “side effects which occasionally appear” value was “tachycardia, flush-like skin reddenings, sickly feelings, headache and hangover”.
Take `CCN(CC)C(=S)SSC(=S)N(CC)CC` [disulfiram]: the “inhibition of important enzyme systems” value in the series with important enzyme systems [7] is recorded as “inhibited”. In addition, in series [8] (orally administered), the side effects result is “several undesirable side effects”. Also, the contraindication result in series [8] (inter alia diabetes) is recorded as “contraindicated by, inter alia, diabetes”.
